The values below come from ChEMBL document CHEMBL2073931, “Interaction between methotrexate and nonsteroidal anti-inflammatory drugs in organic anion transporter” (Eur J Pharmacol, 2000).

In this series the target is T1, Solute carrier family 22 member 6 (Rattus norvegicus, UniProt O35956).
T1 sequence (O35956 whole entry): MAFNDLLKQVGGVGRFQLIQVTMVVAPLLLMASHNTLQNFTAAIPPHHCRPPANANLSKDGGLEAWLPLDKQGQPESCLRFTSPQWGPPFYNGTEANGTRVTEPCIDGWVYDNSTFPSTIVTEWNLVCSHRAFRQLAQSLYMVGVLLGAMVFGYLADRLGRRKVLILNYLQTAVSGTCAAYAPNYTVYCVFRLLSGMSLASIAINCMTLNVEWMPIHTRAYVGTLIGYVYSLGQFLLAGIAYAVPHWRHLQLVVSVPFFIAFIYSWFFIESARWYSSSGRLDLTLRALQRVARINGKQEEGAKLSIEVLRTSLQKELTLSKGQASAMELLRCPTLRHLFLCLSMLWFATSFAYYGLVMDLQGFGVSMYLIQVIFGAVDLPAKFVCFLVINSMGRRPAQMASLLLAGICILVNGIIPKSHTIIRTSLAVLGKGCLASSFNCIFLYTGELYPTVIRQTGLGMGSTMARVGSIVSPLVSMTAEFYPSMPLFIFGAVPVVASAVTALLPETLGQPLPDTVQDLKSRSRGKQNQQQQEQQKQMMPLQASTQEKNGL
Description: TP_TRANSPORTER: inhibition of MTX uptake in Xenopus laevis oocytes. Type of series: functional, cell-based, Oocyte. As to conditions: for Activity: xenopus laevis, oocyte.

In turn, `COc1ccc2c(c1)c(CC(=O)O)c(C)n2C(=O)c1ccc(Cl)cc1` [INDOMETHACIN] registered a Ki of 4200 nM.
As for `O=C(O)c1ccccc1Nc1cccc(C(F)(F)F)c1` [FLUFENAMIC ACID], the Activity result was “inhibitor [+]”.
In turn, `CC(C(=O)O)c1cccc(C(=O)c2ccccc2)c1` (centres undefined) [KETOPROFEN] had an IC50 of 500 nM. In other words, the sub-micromolar range.
Turning to `CCCCC1C(=O)N(c2ccccc2)N(c2ccccc2)C1=O` [PHENYLBUTAZONE], the Activity entry is “inhibitor [+]”.

What is called Ki is a measure of affinity in units of concentration, obtained from inhibition or displacement. Low readings indicate higher affinity, high ones lower affinity. What is called IC50 is the concentration that inhibits the measured activity by half.
